Test results taken from US20040229268A1, “Method and kit for identifying antibiotic-resistant microorganisms” (priority 2003, published 2004).

What was measured:
[1] = test system: mecA gene; rRNA (pan-bacterial probe); experiment: Hybridization Protection Assay (HPA), AE-labeled probes, thermally lysed specimens (Examples 1-2); type: binding, S. aureus
Description: The specimens were lysed by suspending approximately 5×10^8 cells in a lysis buffer (0.1% lithium lauryl sulfate, 1 mM EDTA, 20 mM lithium succinate, pH 5.5) and then incubating in a heat block set at 110° C. for 20 minutes. Thermal lysis of a variety of other specimens was effected under a range of temperature (heat block set at about 95° C. to 110° C.) and time (about 10 to 25 minutes) conditions. The lysed samples were tested for the presence of target sequences complementary to the probes using a Hybridization Protection Assay (HPA) as described by Arnold et al., in Clin. Chem. 35:1588(1989) and U.S. Pat. No. 6,004,745. 50 μl of the heat-treated suspension was incubated with an equal volume of AE-labeled probe in 2× hybridization buffer (1.2 M LiCl, 2% lithium lauryl sulfate, 20 mM EDTA, 20 mM EGTA, 100 mM lithium succinate, pH 5.5) at 60° C. for 30 minutes. The pH of succinate solutions may range from about 4.5 to about 5.5, although it is desirable to use a pH of 4.8 for succinate buffering. 300 μl of a selection reagent (0.6 M borate buffered solution, pH 8.5; note, pH may vary from 8.0 to 9.0) was added, the mixture was heated at 60° C. for 10 minutes to effect differential hydrolysis, and the samples were read in a GEN-PROBE® LEADER® luminometer using sequential 300 μl injections of 0.1% H2O2 and 1 N NaOH solutions (see Arnold et al, supra; GEN-PROBE® Detection Reagent Kit, Cat. No. 1791 may be used).
Procedures similar to those described in Example 1 were conducted using a large number of bacterial samples, except that parallel hybridization reactions employed a pan-bacterial probe which targeted rRNA (Probe Reagent 1, GEN-PROBE® MTC-NI Kit, catalog no. 4573). […] The pan-bacterial probe reagent served as a positive control for lysis of all of the specimens. In this procedure each sample was tested against a panel of the three probes contained in separate hybridization reactions. Aliquots of the samples tested using the pan-bacterial probe reagent were diluted 1:3000 prior to performing luminometry so that results fell within the linear range of the detector. The signals indicated lysis and detection of ribosomal nucleic acids in each of the samples. These values depended on the number of bacterial cells in the specimen, as well as on the extent of cell lysis and the release or accessibility of ribosomal nucleic acids from the cells to be detected by the pan-bacterial probe.

[2] = test system: mecA gene; Staphylococcus ribosomal nucleic acids; experiment: HPA after thermal lysis, base hydrolysis and neutralization (Examples 5-7); type: binding, S. aureus
Description: The cultured S. aureus specimens were lysed by suspending 1 μl loops of bacteria in 150 μl of lysis buffer and then incubating at 105° C. for 15 minutes. Next, 100 μl of 2 N LiOH base solution was added and RNA was hydrolyzed by incubating the mixtures at 60° C. for 15 minutes. Hydrolyzed samples were neutralized by the addition of 100 μl of a neutralizing reagent that included 2 N HCl and 100 mM succinate buffer (pH 5.5 prior to acidification with HCl). Specifically hybridized probe was detected by standard HPA, essentially as described in Example 1.
Specimens (1 μl loops of bacteria) were treated and tested essentially as described in Example 5 with the following differences: incubation for lysis was for 15 minutes and incubation for hybridization was for 45 minutes for samples shown in Tables 7-8, while incubation for lysis was for 10 minutes and incubation for hybridization was for 20 minutes for samples shown in Table 9. All of the base-treated solutions were neutralized by the addition of 250 μl of 0.8 N HCl containing 100 mM succinate.
2′-methoxy analogs of the AE-labeled DNA probes were prepared by standard phosphoramidite synthesis using 2′ methoxy phosphoramidite analogs. Additional linker positions, which are indicated by parentheses in Table 11, for probe 2 were also prepared for testing. Deoxy probes and 2′-methoxy probe analogs were tested essentially as described in Example 5, except as noted below. Probes synthesized using 2′-methoxy nucleotide analogs are particularly identified by the “MeO” designations. Brief summaries of the procedures used to obtain the results are appended to the tables.

[3] = Table 7, lysis 15 minutes, hybridization 45 minutes
[4] = Table 8, lysis 15 minutes, hybridization 45 minutes
[5] = Table 9, lysis 10 minutes, hybridization 20 minutes
[6] = Table 10, neutralize 100 μl 2 N HCl containing 200 mM succinate, hybridize 45 minutes at 60° C.

GGTATGTGGAAGTTAGATTGGGATCATAGCG (AE label, linker between 13 and 14, chemistry not fully specified; listed as Staphylococcus aureus) [Probe 1]
AE-probe Average RLU ([1]; No Specimen): 431 RLU
AE-probe Average RLU ([1]; S. aureus specimen #99, mecA PCR Pos): 2664 RLU
AE-probe Average RLU ([1]; S. aureus specimen #100, mecA PCR Neg): 590 RLU
AE-Probe Signal (RLU) ([1]; Table 2, Negative Control): 1817 RLU
AE-Probe Signal (RLU) ([1]; Table 2, specimen 10, mecA PCR Neg, pan-bacterial diluted 1:3000 prior to luminometry): 2918 RLU
AE-Probe Signal (RLU) ([1]; Table 2, specimen 99, mecA PCR Pos, pan-bacterial diluted 1:3000 prior to luminometry): 5822 RLU
AE-Probe Signal (RLU) ([1]; Table 2, specimen 100, mecA PCR Neg, pan-bacterial diluted 1:3000 prior to luminometry): 815 RLU
AE-Probe Signal (RLU) ([1]; Table 2, specimen 101, mecA PCR Neg, pan-bacterial diluted 1:3000 prior to luminometry): 2768 RLU
AE-Probe Signal (RLU) ([1]; Table 2, specimen 102, mecA PCR Pos, pan-bacterial diluted 1:3000 prior to luminometry): 5623 RLU
AE-Probe Signal (RLU) ([1]; Table 2, specimen 103, mecA PCR Neg, pan-bacterial diluted 1:3000 prior to luminometry): 1097 RLU
AE-Probe Signal (RLU) ([1]; Table 2, specimen 104, mecA PCR Neg, pan-bacterial diluted 1:3000 prior to luminometry): 959 RLU
AE-Probe Signal (RLU) ([1]; Table 2, specimen 105, mecA PCR Neg, pan-bacterial diluted 1:3000 prior to luminometry): 1086 RLU
AE-Probe Signal (RLU) ([1]; Table 2, specimen 106, mecA PCR Neg, pan-bacterial diluted 1:3000 prior to luminometry): 1327 RLU
AE-Probe Signal (RLU) ([1]; Table 2, specimen 139, mecA PCR Pos, pan-bacterial diluted 1:3000 prior to luminometry): 5755 RLU
AE-Probe Signal (RLU) ([1]; Table 2, specimen 140, mecA PCR Pos, pan-bacterial diluted 1:3000 prior to luminometry): 3143 RLU
AE-Probe Signal (RLU) ([1]; Table 2, specimen 142, mecA PCR Pos, pan-bacterial diluted 1:3000 prior to luminometry): 6845 RLU
AE-Probe Signal (RLU) ([1]; Table 2, specimen 145, mecA PCR Neg, pan-bacterial diluted 1:3000 prior to luminometry): 997 RLU
AE-Probe Signal (RLU) ([1]; Table 2, specimen 148, mecA PCR Pos, pan-bacterial diluted 1:3000 prior to luminometry): 10483 RLU
AE-Probe Signal (RLU) ([1]; Table 2, specimen 155, mecA PCR Neg, pan-bacterial diluted 1:3000 prior to luminometry): 730 RLU
AE-Probe Signal (RLU) ([1]; Table 2, specimen 164, mecA PCR Neg, pan-bacterial diluted 1:3000 prior to luminometry): 1546 RLU
AE-Probe Signal (RLU) ([1]; Table 2, specimen 178, mecA PCR Pos, pan-bacterial diluted 1:3000 prior to luminometry): 7772 RLU
AE-Probe Signal (RLU) ([1]; Table 2, specimen 188, mecA PCR Pos, pan-bacterial diluted 1:3000 prior to luminometry): 11856 RLU
AE-Probe Signal (RLU) ([1]; Table 2, specimen 270, mecA PCR Pos, pan-bacterial diluted 1:3000 prior to luminometry): 9256 RLU
AE-Probe Signal (RLU) ([1]; Table 2, specimen 296, mecA PCR Pos, Lab Pos control, pan-bacterial diluted 1:3000 prior to luminometry): 5567 RLU
RLU ([2]; Table 6, GP18(Neg), MSSA ATCC #12600): 821 RLU
RLU ([2]; Table 6, GP1214(Neg), MSSA ATCC #29247): 848 RLU
RLU ([2]; Table 6, GP1217(Pos), MRSA ATCC #33591): 53,322 RLU
RLU ([2]; Table 6, GP1218(Pos), MRSA ATCC #43866): 36,730 RLU
GP18(Neg) RLU [2, 3]: 757 RLU
GP1217(Pos) RLU [2, 3]: 25928 RLU
Probe alone Avg RLU [2, 3]: 3668 RLU
GP18(Neg) RLU [2, 4]: 879 RLU
GP1217(Pos) RLU [2, 4]: 11485 RLU
Probe alone Avg RLU [2, 4]: 1123 RLU
GP1217(Pos) RLU [2, 5]: 27256 RLU
Probe alone Avg RLU [2, 5]: 2476 RLU
GP1214(Neg) RLU [2, 6]: 1844 RLU
GP1217(Pos) RLU [2, 6]: 37695 RLU
Probe alone Avg RLU [2, 6]: 2131 RLU
